Assay results from US9999616B2 (ZENITH EPIGENETICS LTD., priority 2013, dated 2018).
pIC50: −log10 of the molar value.

Legend:
hIL-6 mRNA = test: Inhibition of hIL-6 mRNA transcription in LPS-stimulated U937 macrophages; assay type: cell-based, Human; conditions: 1 h pretreatment, LPS 3 h; for pIC50: Homo sapiens, U-937, PMA-differentiated U937 cells, read-out: IL-6 activity; for IL-6 activity: PMA-differentiated U937 cells
Procedure: Human leukemic monocyte lymphoma U937 cells (CRL-1593.2) were plated at a density of 3.2×10^4 cells per well in a 96-well plate in 100 μL RPMI-1640 containing 10% FBS and penicillin/streptomycin, and differentiated into macrophages for 3 days in 60 ng/mL PMA ([…]) at 37° C. in 5% CO2 prior to the addition of compound. The cells were pretreated for 1 h with increasing concentrations of test compound in 0.1% DMSO prior to stimulation with 1 ug/mL lipopolysaccharide from Escherichia coli. Triplicate wells were used for each concentration. The cells were incubated at 37° C., 5% CO2 for 3 h before the cells were harvested. At time of harvest, media was removed and cells were rinsed in 200 μL PBS. Cells were harvested using the mRNA Catcher PLUS kit according to manufacturer's instructions. The eluted mRNA was then used in a one-step quantitative real-time PCR reaction using components of the RNA UltraSense™ One-Step Kit (Life Technologies) together with Applied Biosystems TaqMan® primer-probes for hIL-6 and Cyclophilin. Real-time PCR plates were run on a ViiA™7 real time PCR machine (Applied Biosystems), data was analyzed, normalizing the Ct values for hlL-6 to an internal control, prior to determining the fold expression of each sample, relative to the control.

[1] = target: Brd4 bromodomain 1 (BRD4(1)) (Homo sapiens, UniProt O60885); test: Inhibition of tetra-acetylated histone H4 binding to Brd4 bromodomain 1, measured by FRET (HTRF); set-up: made in house; host or cells: E. coli BL21(DE3); conditions: 2 h at room temperature
Procedure: Proteins were cloned and overexpressed with a N-terminal 6×His tag, then purified by nickel affinity followed by size exclusion chromatography. Briefly, E. coli BL21(DE3) cells were transformed with a recombinant expression vector encoding N-terminally Nickel affinity tagged bromodomains from Brd2, Brd3, Brd4. Cell cultures were incubated at 37° C. with shaking to the appropriate density and induced overnight with IPTG. The supernatant of lysed cells was loaded onto Ni-IDA column for purification. Eluted protein was pooled, concentrated and further purified by size exclusion chromatography. Fractions representing monomeric protein were pooled, concentrated, aliquoted, and frozen at −80° C. for use in subsequent experiments.
Binding of tetra-acetylated histone H4 and BET bromodomains was confirmed by a Homogenous Time Resolved Fluorescence Resonance Energy Transfer (HTRF®) method. N-terminally His-tagged bromodomains (200 nM) and biotinylated tetra-acetylated histone H4 peptide (25-50 nM, Millipore) were incubated in the presence of Europium Cryptate-labeled streptavidin (Cisbio Cat. #610SAKLB) and XL665-labeled monoclonal anti-His antibody (Cisbio Cat. #61HISXLB) in a white 96 well microtiter plate (Greiner). For inhibition assays, serially diluted test compound was added to these reactions in a 0.2% final concentration of DMSO. Duplicate wells were used for each concentration tested. Final buffer concentrations were 30 mM HEPES pH 7.4, 30 mM NaCl, 0.3 mM CHAPS, 20 mM phosphate pH 7.0, 320 mM KF, 0.08% BSA. After a 2 h incubation at room temperature, fluorescence was measured at 665 and 620 nm with a SynergyH4 plate reader (Biotek). The binding inhibitory activity was shown by a decrease in 665 nm relative to 620 nm fluorescence. IC50 values were determined from a dose response curve.

Human AML MV-4-11 cells = test: Inhibition of cell proliferation in MV4-11 cells (CellTiter Aqueous One); assay type: cell-based; conditions: for pIC50: MV4-11, 72 h; for Cell Proliferation activity: 72 h
Procedure: MV4-11 cells (CRL-9591) were plated at a density of 5×10^4 cells per well in 96 well flat bottom plates and treated with increasing concentrations of test compound or DMSO (0.1%) in IMDM media containing 10% FBS and penicillin/streptomycin. Triplicate wells were used for each concentration and a well containing only media was used as a control. Plates were incubated at 37° C., 5% CO2 for 72 h before adding 20 µL of the CellTiter Aqueous One Solution (Promega) to each well and incubated at 37° C., 5% CO2 for an additional 3-4 h. The absorbance was read at 490 nm in a spectrophotometer and the percentage of cell titer relative to DMSO-treated cells was calculated after correcting for background by subtracting the blank well's signal. IC50 values were calculated using the GraphPad Prism software.

[2] = tested on: c-myc in Human AML MV4-11 cells; test: Inhibition of cMYC expression (mRNA, real-time PCR) in MV4-11 cells; assay type: cell-based; conditions: 3 h treatment, cMYC mRNA by real-time PCR
Procedure: MV4-11 cells (CRL-9591) were plated at a density of 2.5×10^4 cells per well in 96 well U-bottom plates and treated with increasing concentrations of test compound or DMSO (0.1%) in IMDM media containing 10% FBS and penicillin/streptomycin, and incubated for 3 h at 37′C. Triplicate wells were used for each concentration. Cells were pelleted by centrifugation and harvested using the mRNA Catcher PLUS kit according to manufacturer's instructions. The eluted mRNA isolated was then used in a one-step quantitative real-time PCR reaction, using components of the RNA UltraSense™ One-Step Kit (Life Technologies) together with Applied Biosystems TaqMan® primer-probes for cMYC and Cyclophilin. Real-time PCR plates were run on a ViiA™7 real time PCR machine (Applied Biosystems), data was analyzed, normalizing the Ct values for cMYC to an internal control, prior to determining the fold expression of each sample, relative to the control.

| Structure (SMILES) | pIC50 (hIL-6 mRNA) | pIC50 [1] | pIC50 (Human AML MV-4-11 cells) | pIC50 [2] | IL-6 activity (hIL-6 mRNA) | Cell Proliferation activity (Human AML MV-4-11 cells) |
| --- | --- | --- | --- | --- | --- | --- |
| Cc1noc(C)c1-c1cc(-c2c(C)noc2C)c2nccn2c1 [Example Compound 8, 4,4′-(imidazo [1,2-a]pyridine-6,8-diyl) bis(3,5-dimethylisoxazole)] | – | 5.52 to 6.52 | – | – | Not active | Not active |
| Cc1noc(C)c1-c1cc(-c2cncnc2)c2nc[nH]c2c1 [Example Compound 22, 3,5-dimethyl-4-(4-(pyrimidin-5-yl)-1H-benzo[d]imidazol-6-yi)isoxazole] | 5.52 to 6.52 | 5.52 to 6.52 | – | – | – | Not active |
| COc1nccc(C)c1-c1cc(-c2c(C)noc2C)cc2[nH]c(C)nc12 [Example Compound 114, 4-(4-(2-methoxy-4-methyl-pyridin-3-yl)-2-methyl-1H-benzo[d]imidazol-6-yl)-3,5-dimethyl isoxazole] | ≥ 6.52 | 5.52 to 6.52 | – | – | – | – |
| Cc1nc2c(N3C(=O)CCC3C)cc(-c3c(C)noc3C)cc2[nH]1 (stereo not drawn) [Example Compound 121, 1-(6-(3,5-dimethylisoxazol-4-yl)-2-methyl-1H-benzo[d]imidazol-4-yl)-5-methylpyrrolidin-2-one] | 5.52 to 6.52 | 5.52 to 6.52 | – | – | – | Not active |
| Cc1nc2c(NC(=O)c3ccccc3)cc(-c3c(C)noc3C)cc2[nH]1 [Example Compound 165, N-(6-(3,5-dimethyl-isoxazol-4-yl)-2-methyl-1H-benzo[d]imidazol-4-yl)benzamide] | 5.52 to 6.52 | 5.52 to 6.52 | 4.52 to 5.52 | – | – | – |
| Cc1ccc(C#N)cc1-c1cc(-c2c(C)noc2C)cc2[nH]c(NCc3cccnc3)nc12 [Example Compound 211, 3-(6-(3,5-dimethyl-isoxazol-4-yl)-2-((pyridin-3-ylmethyl)amino)-1H-benzo[d]imidazol-4-yl)-4-methyl-benzonitrile] | 5.52 to 6.52 | ≥ 6.52 | – | – | – | – |
| Cc1noc(C)c1-c1cc(-c2c(C)nn(C)c2C)c2nc(NCc3ccccc3)[nH]c2c1 [Example Compound 212, N-benzyl-6-(3,5-dimethyl-isoxazol-4-yl)-4-(1,3,5-trimethyl-1H-pyrazol-4-yl)-1H-benzo[d] imidazol-2-amine] | ≥ 6.52 | ≥ 6.52 | – | – | – | – |
| Cc1noc(C)c1-c1cc(-c2c(C)nn(C)c2C)c2nc(N3CCCC3)[nH]c2c1 [Example Compound 213, 3,5-dimethyl-4-(2-(pyrrolidin-1-yl)-4-(1,3,5-trimethyl-1H-pyrazol-4-yl)-1H-benzo[d]imidazol-6-yl)isoxazole] | ≥ 6.52 | ≥ 6.52 | – | – | – | – |
| Cc1ccc(C#N)cc1-c1cc(-c2c(C)noc2C)cc2[nH]c(N3CCCC3)nc12 [Example Compound 215, 3-(6-(3,5-dimethylisoxazol-4-yl)-2-(pyrrolidin-1-yl)-1H-benzo[d]imidazol-4-yl)-4-methylbenzonitrile] | 5.52 to 6.52 | ≥ 6.52 | – | ≥ 6.52 | – | – |
| Cc1noc(C)c1-c1cc(-c2cccc(C#N)c2C)c2nc(NC3CCN(C)CC3)[nH]c2c1 [Example Compound 216, 3-(6-(3,5-dimethyl-isoxazol-4-yl)-2-((1-methyl-piperidin-4-yl)amino)-1H-benzo[d]imidazol-4-yl)-2-methyl benzonitrile] | ≥ 6.52 | ≥ 6.52 | – | 5.52 to 6.52 | – | – |

The next lines start with results.

| pIC50 (hIL-6 mRNA) | pIC50 [1] | pIC50 (Human AML MV-4-11 cells) | pIC50 [2] | Structure (SMILES) | IL-6 activity (hIL-6 mRNA) | Cell Proliferation activity (Human AML MV-4-11 cells) |
| --- | --- | --- | --- | --- | --- | --- |
| 5.52 to 6.52 | ≥ 6.52 | 5.52 to 6.52 | 5.52 to 6.52 | Cc1noc(C)c1-c1cc(-c2cccc(C#N)c2)c2nc[nH]c2c1 [Example Compound 2, 3-(6-(3,5-dimethylisoxazol-4-yl)-1H-benzo[d]imidazol-4-yl) benzonitrile] | – | – |
| 4.52 to 5.52 | ≥ 6.52 | – | 4.52 to 5.52 | Cc1noc(C)c1-c1cc(Nc2ccccc2)c2nncn2c1 [Example Compound 15, 6-(3,5-dimethylisoxazol-4-yl)-N-phenyl-[1,2,4] triazolo[4,3-a]pyridin-8-amine] | – | Not active |
| ≥ 6.52 | ≥ 6.52 | 5.52 to 6.52 | 5.52 to 6.52 | Cc1noc(C)c1-c1cc(-c2ccnn2C)c2nc[nH]c2c1 [Example Compound 16, 3,5-dimethyl-4-(4-(1-methyl-1H-pyrazol-5-yl)-1H-benzo[d]imidazol-6-yl)isoxazole] | – | – |
| ≥ 6.52 | ≥ 6.52 | 5.52 to 6.52 | 5.52 to 6.52 | Cc1nn(C)cc1-c1cc(-c2c(C)noc2C)cc2[nH]cnc12 [Example Compound 18, 4-(4-(1,3-dimethyl-1H-pyrazol-4-yl)-1H-benzo [d]imidazol-6-yl)-3,5-dimethyl isoxazole] | – | – |
| ≥ 6.52 | ≥ 6.52 | 5.52 to 6.52 | 5.52 to 6.52 | Cc1noc(C)c1-c1cc(-c2cccc3c2cnn3C)c2nc[nH]c2c1 [Example Compound 23, 3,5-dimethyl-4-(4-(1-methyl-1H-indazol-4-yl)-1H-benzo[d]imidazol-6-yl)isoxazole] | – | – |
| 5.52 to 6.52 | ≥ 6.52 | 4.52 to 5.52 | – | Cc1noc(C)c1-c1cc(Nc2ncccn2)c2nc[nH]c2c1 [Example Compound 43, 6-(3,5-dimethyl-isoxazol-4-yl)-N-(pyrimidin-2-yl)-1H-benzo[d] imidazol-4-amine] | – | – |
| ≥ 6.52 | ≥ 6.52 | 5.52 to 6.52 | – | Cc1nc2c(-c3cccc(S(C)(=O)=O)c3)cc(-c3c(C)noc3C)cc2[nH]1 [Example Compound 154, 3,5-dimethyl-4-(2-methyl-4-(3-(methyl-sulfonyl)phenyl)-1H-benzo[d]imidazol-6-yl)isoxazole] | – | – |
| 5.52 to 6.52 | ≥ 6.52 | 5.52 to 6.52 | – | Cc1nc2c(/C=C/c3ccccc3)cc(-c3c(C)noc3C)cc2[nH]1 [Example Compound 158, (E)-3,5-dimethyl-4-(2-methyl-4-styryl-1H-benzo[d]imidazol-6-yl)isoxazole] | – | – |
| – | ≥ 6.52 | – | – | Cc1nc2c(Oc3cc(C(=O)O)ccc3C)cc(-c3c(C)noc3C)cc2[nH]1 [Example Compound 175, 3-((6-(3,5-dimethylisoxazol-4-yl)-2-methyl-1H-benzo[d]imidazol-4-yl)oxy)-4-methylbenzoic acid] | Not active | Not active |
| ≥ 6.52 | ≥ 6.52 | – | – | Cc1noc(C)c1-c1cc(-c2cccc(C(N)=O)c2C)c2nc(N3CCOCC3)[nH]c2c1 [Example Compound 208, 3-(6-(3,5-dimethyl-isoxazol-4-yl)-2-morpholino-1H-benzo[d]imidazol-4-yl)-2-methyl benzamide] | – | – |
